Test: Stability of rhEGF in soymilk, read out by bioactivity on Hela cell EGFR
Assay type: physicochemical
Settings: in soymilk over 24 hours; Hela cell EGFR abundance
Procedure: Hela cells (obtained from American Tissue Culture Collection) were cultured in Minimum Essential Media (MEM) complemented with 10% Fetal Bovine Serum (FBS), 100 units/ml penicillin, and 100 μg/ml streptomycin. For the western blotting assay, cells grown in a 6-well plate were kept in serum-free MEM media for 24 hours. Cells were then either kept in a serum-free medium (control) or stimulated with soy milk alone, soy EGF, or commercial recombinant human EGF for different time periods as indicated. Cells were lysed by directly adding 1×SDS sample buffer (50 mM Tris-HCl, pH 6.8, 10% glycerol, 2% SDS, and 5% β-ME) to the cells after washing 3 times with 1×PBS. EGF bio-activity was determined via EGFR phosphorylation and downstream AKT phosphorylation. Total EGFR was also measured since EGFR is known to undergo internalization when stimulated with EGF. Antibodies used in western blot are anti-p-EGFR (Tyr1068) (#2234, Cell Signaling Technology), anti-total EGFR (#06-847, Millipore), anti-p-AKT (#4060, Cell Signaling Technology) and anti-Lamin B1 (#13435, Cell Signaling Technology). […] EGFR was labeled using an anti-EGFR antibody (#4267, Cell Signaling Technology) and detected with Alexa Fluor 594 Goat anti-rabbit IgG (#A11012, Life Technologies). […]

Substance: rhEGF: commercial recombinant human EGF (Gibco, Life Technologies), used as positive control
- bioactivity of rhEGF kept in soymilk versus control rhEGF: same bioactivity as control recombinant rhEGF
